From patent publication US7795379B2, “Isolated nucleic acid molecules encoding cancer associated antigens, the antigens per se, and uses thereof” (Ludwig Institute for Cancer Research, priority 1999, dated 2010)

Experiments:
[1] = system: CD4^+ T cells; experiment: IFN-gamma ELISPOT with overlapping NY-BR-1 18-mers, CD4+ T cells of NY-BR-1 positive patients; assay type: cell-based, human; settings: IFN-gamma ELISPOT after presensitization with 18-mer, numbering by SEQ ID NO: 32
Protocol: (§1) CD4^+ and CD8^+ T lymphocytes were separated from PBMC of NY-BR-1 positive patients by magnetic beads (MiniMACS) and seeded into 48-well plates at a concentration of 2.5-5×10^5 cells per well in RPMI medium 1640 supplemented with 10% human serum, L-asparagine (50 mg/l), L-arginine (242 mg/l), and L-glutamine (300 mg/l). PBMC depleted of T cells were used as antigen presenting cells. After irradiation, these cells were incubated with 39 single peptides (10 μg/ml) spanning amino acids 1004-1397 of NY-BR-1(SEQ ID NO: 32) each of 18 amino acids in length and overlapping in 8 positions on each terminus, for 1 hour at room temperature and added to plates at a concentration of 1×10^6 cells per well. IL-2 and IL-4 (2.5 ng/ml and 50 U/ml, respectively) were added to CD4^+ T cell cultures, and IL-2 and IL-7 (2.5 ng/ml and 10 ng/ml, respectively) to CD8^+ T cells. Peptide specific T cell responses against the stimulating epitope were determined by IFN-gamma ELISPOT assays 6 to 12 days after presensitization.
(§2) Flat-bottomed, 96 well nitrocellulose plates were coated with IFN-γ mAb and incubated overnight at 4° C. After washing with PBS, the plates were blocked with 10% human AB serum for 1 hour at 37° C. Presensitized CD4^+ or CD8^+ T cells from (1×10^3 to 5×10^4) and 5×10^4 peptide-pulsed APC (autologous Dendritic Cells or Epstein Barr Virus transfected B cells) were added to each well and incubated for 20 hours in RPMI medium 1640 lacking both IL-2 and human serum. Plates were then washed thoroughly with PBS to remove cells, and biotinylated IFN-γ mAbs were added to each well. After incubation for 2 hours at 37° C., the plates were washed and developed with streptavidin-alkaline phosphase for 1 hour at room temperature. After washing, substrate (5-bromo-4-chloro-3-indolyl phosphate/nitroblue tetrazolium) was added and incubated for 5 minutes.
(§3) Both CD4^+ and CD8^+ T cells were collected from twenty patients, who had been diagnosed with cancer and expressed NY-BR-1, as determined via the methods set forth supra. These CD4^+ and CD8^+ T cells were then analyzed for spontaneous NY-BR-1 specific, CD4^+ and CD8^+ responses.
(§4) Lymphocytes, which had been purified in accordance with the standard methods set forth supra, were presensitized with synthetic 18 mers which overlapped each other, and spanned amino acids […] of SEQ ID NO: 32.
(§5) Following the presensitization, effector cell populations were tested for recognition of ELISPOT assays, with autologous, EBV transfected B cells, and T2 cell lines being used as the antigen presenting cells in the ELISPOT assays. ELISPOT assays were carried out as described supra.

[2] = system: CD8^+ T cells; experiment: IFN-gamma ELISPOT with overlapping NY-BR-1 18-mers, CD8+ T cells of NY-BR-1 positive patients; assay type: cell-based, human; settings: for recognized by CD8+ cells: IFN-gamma ELISPOT after presensitization with 18-mer, numbering by SEQ ID NO: 32
Protocol: as §1, §2, §3, §4, §5

[3] = system: CD8^+ cells; experiment: ELISPOT assay (interferon gamma) of CTL stimulation by NY-BR-1 peptides pulsed onto T2 cells; assay type: cell-based, human; settings: peptides pulsed onto irradiated T2 cells at 10 ug/ml; CD8+ effector cells presensitized with peptide; HLA-A2
Protocol: A series of peptides were synthesized, based upon the amino acid sequence of NY-BR-1, as set forth in SEQ ID NO: 23 and the concatenation of SEQ ID NOS: 30 & 23, as described supra and set forth at SEQ ID NO: 32. These were then tested for their ability to bind to HLA-A2 molecules and to stimulate CTL proliferation, using an ELISPOT assay. This assay involved coating 96-well, flat bottom nitrocellulose plates with 5 ug/ml of anti-interferon gamma antibodies in 100 ul of PBS per well, followed by overnight incubation. Purified CD8^+ cells, which had been separated from PBL samples via magnetic beads coated with anti-CD8 antibodies were then added, at 1×10^5 cells/well, in RPMI 1640 medium, that had been supplemented with 10% human serum, L-asparagine (50 mg/l), L-arginine (242 mg/l), L-glutamine (300 mg/l), together with IL-2 (2.5 ng/ml), in a final volume of 100 ul. CD8^+ effector cells were prepared by presensitizing with peptide, and were then added at from 5×103 to 2×10^4 cells/well. Peptides were pulsed onto irradiated T2 cells at a concentration of 10 ug/ml for 1 hour, washed and added to effector cells, at 5×10^4 cells/well. The plates were incubated for 16 hours at 37° C., washed six times with 0.05% Tween 20/PBS, and were then supplemented with biotinylated, anti-interferon gamma specific antibody at 0.5 ug/ml. After incubation for 2 hours at 37° C., plates were washed, and developed with commercially available reagents, for 1 hour, followed by 10 minutes of incubation with dye substrate. Plates were then prepped for counting, positives being indicated by blue spots. The number of blue spots/well was determined as the frequency of […] specific CTLs/well.
Experiments were run, in triplicate, and total number of CTLs was calculated. As controls, one of reagents alone, effector cells alone, or antigen presenting cells alone were used. The difference between the number of positives in stimulated versus non-stimulated cells, was calculated as the effective number of peptide specific CTLs above background.

[4] = system: CD8^+ T cell clones; experiment: T cell stimulation assay: TNF-α production by peptide/HLA-A2 specific CTL clones with COS-7 transfectants (NY-BR-1 + HLA-A2); assay type: cell-based, human; settings: COS-7 cells transfected with NY-BR-1 and HLA-A2; CD8+ T cell clones of breast cancer patient NW-1100
Protocol: Sequences encoding NY-BR-1 were excised from plasmid pQE9, via standard restriction enzyme digestion, and were cloned into BamHI-Hind III sites of commercially available plasmid pcDNA31 (−).
The resulting vectors were then transfected into COS-7 cells. To accomplish this, 2×10^4COS-7 cells were admixed with 150 ng of the construct described supra, and 150 ng of plasmid pcDNA-AmpI, which contained cDNA encoding HLA-A2. The standard DE AE-dextran chloroquine method was used. Transfectants were then incubated at 37° C. for 48 hours, and then tested in a T cell stimulation assay, after 24 hours, as described infra.
The transfectants were tested to determine if they could stimulate production of TNF-α by CTLs specific for complexes of HLA-A2 molecules and one of the peptides described supra. The CTLs used were CD8^+ T cell clones. […]
To test if the transfectants stimulated the CD8^+ cells, 5000 of these CD8^+ cells, in 100 μl RPMI supplemented with 10% human serum, and 25 U/ml of recombinant human IL-2 were added to micowells containing the transfectants. After 24 hours, 50 μl samples of supernatant were collected, and TNFα content was determined by testing cytotoxicity against WEHI 164 clone 13 cells, in an MTT colorimetric assay, which is a standard method for showing TNFα production.

[5] = target: T1, serum samples from breast cancer patients and normal serum samples (Homo sapiens, UniProt Q9BXX3); experiment: Western blotting of serum samples against recombinant NY-BR-1 protein fragments; assay type: binding
T1 construct: made in house
T1 sequence (Q9BXX3 1049-1244): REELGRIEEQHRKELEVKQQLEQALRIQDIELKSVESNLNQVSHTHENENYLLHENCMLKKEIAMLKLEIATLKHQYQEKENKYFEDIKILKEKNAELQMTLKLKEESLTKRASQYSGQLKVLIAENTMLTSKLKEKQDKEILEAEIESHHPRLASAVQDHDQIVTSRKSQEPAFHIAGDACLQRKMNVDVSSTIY
Protocol: The frequency of antibody response against NY-BR-1 in breast cancer patients was tested. To do this, a recombinant protein consisting of amino acids 993-1188 of SEQ ID NO: 23 was prepared. (This is the protein encoded by clone BR 17-128, referred to supra). A total of 140 serum samples were taken from breast cancer patients, as were 60 normal serum samples. These were analyzed via Western blotting, using standard methods.
An additional set of experiments was then carried out to determine if sera recognized the portion of NY-BR-1 protein with repetitive elements. To do this, a different recombinant protein, consisting of amino acids 405-1000 was made, and tested in Western blot assays.

KINLNYAGDALRENTLVS [p1264-1281]
CD4+ cells reacted / recognized by CD4+ T cells [1]: reacted | recognized by CD8+ cells [2]: recognized

SLDQKLFQL [NY-BR-1 derived peptide, HLA-A2]
reactive in ELISPOT (peptide specific CTLs above background) [3]: reactive

ENQKVKWEQELCSVRLTL [p1014-1031]
CD4+ cells reacted / recognized by CD4+ T cells ([1]; listed as 1011-1021): reacted

SLSKILDTV [NY-BR-1 derived peptide, HLA-A2]
peptide/HLA-A2 complexes recognized by CD8+ T cells (TNFα production); naturally processed epitope [4]: natural epitopes | reactive in ELISPOT (peptide specific CTLs above background) [3]: reactive

QQQLVHAHKKADNKSKIT [p1334-1351]
recognized by CD8+ cells [2]: recognized

FNYNNHLKNRIYQYEKEK [p1374-1391]
CD4+ cells reacted / recognized by CD4+ T cells [1]: reacted

LRENTLVSEHAQRDQRET [p1274-1291]
recognized by CD8+ cells [2]: recognized

HLLKEKNEEIFNYNNHLK [p1364-1381]
CD4+ cells reacted / recognized by CD4+ T cells [1]: reacted

TSRKSQEPAFHIAGDACL [p1214-1231]
recognized by CD8+ cells [2]: recognized | HLA restriction ([2]; recognized when pulsed onto T2 cells, patient 1): restricted to HLA-A2

QYQEKENKYFEDIKILKE [p1124-1141]
CD4+ cells reacted / recognized by CD4+ T cells [1]: reacted

HIAGDACLQRKMNVDVSS [p1224-1241]
recognized by CD8+ cells [2]: recognized

LLSHGAVIEV [NY-BR-1 derived peptide, HLA-A2]
peptide/HLA-A2 complexes recognized by CD8+ T cells (TNFα production); naturally processed epitope [4]: natural epitopes | reactive in ELISPOT (peptide specific CTLs above background) [3]: reactive

YSGQLKVLIAENTMLTSK [p1164-1181]
CD4+ cells reacted / recognized by CD4+ T cells [1]: reacted

HENENYLLHENCMLKKEI [p1094-1111]
CD4+ cells reacted / recognized by CD4+ T cells [1]: reacted

EDIKILKEKNAELQMTLK [p1134-1151]
CD4+ cells reacted / recognized by CD4+ T cells [1]: reacted

B1: amino acids 993-1188: recombinant protein consisting of amino acids 993-1188 of SEQ ID NO: 23 (NY-BR-1) (protein)
chain: T1 sequence (Q9BXX3 1049-1244)
reactivity of normal sera in Western blot ([5]; 60 normal serum samples): negative | cancer sera samples positive in Western blot ([5]; 140 serum samples from breast cancer patients): Four

B2: amino acids 405-1000: recombinant protein consisting of amino acids 405-1000 of NY-BR-1, the portion with repetitive elements (protein, UniProt Q9BXX3 405-1000, looked up, fragment)
chain: KFTWAAKGRPRKIAWEKKETPVKTGCVARVTSNKTKVLEKGRSKMIACPTKESSTKASANDQRFPSESKQEEDEEYSCDSRSLFESSAKIQVCIPESIYQKVMEINREVEEPPKKPSAFKPAIEMQNSVPNKAFELKNEQTLRADPMFPPESKQKDYEENSWDSESLCETVSQKDVCLPKATHQKEIDKINGKLEESPNKDGLLKATCGMKVSIPTKALELKDMQTFKAEPPGKPSAFEPATEMQKSVPNKALELKNEQTLRADEILPSESKQKDYEENSWDTESLCETVSQKDVCLPKAAHQKEIDKINGKLEGSPVKDGLLKANCGMKVSIPTKALELMDMQTFKAEPPEKPSAFEPAIEMQKSVPNKALELKNEQTLRADEILPSESKQKDYEESSWDSESLCETVSQKDVCLPKATHQKEIDKINGKLEESPDNDGFLKAPCRMKVSIPTKALELMDMQTFKAEPPEKPSAFEPAIEMQKSVPNKALELKNEQTLRADQMFPSESKQKKVEENSWDSESLRETVSQKDVCVPKATHQKEMDKISGKLEDSTSLSKILDTVHSCERARELQKDHCEQRTGKMEQMKKKFCVLK
reactivity of the four antibody positive sera in Western blot ([5]; the four cancer sera positive for amino acids 993-1188): None of the four antibody positive sera reacted
